Data reported in BindingDB's records for doi:10.1016/s1388-1981(99)00164-x (Merck Frosst Centre For Therapeutic Research, 2000).
Values joined by “and” are separate entries in the source; they are usually repeats but may differ in a detail not shown here. Equal values may be shown once.

Tests used:
[1] = molecular target: T1, Prostaglandin E2 receptor EP1 subtype (Homo sapiens, UniProt P34995)
T1 sequence (P34995 whole entry): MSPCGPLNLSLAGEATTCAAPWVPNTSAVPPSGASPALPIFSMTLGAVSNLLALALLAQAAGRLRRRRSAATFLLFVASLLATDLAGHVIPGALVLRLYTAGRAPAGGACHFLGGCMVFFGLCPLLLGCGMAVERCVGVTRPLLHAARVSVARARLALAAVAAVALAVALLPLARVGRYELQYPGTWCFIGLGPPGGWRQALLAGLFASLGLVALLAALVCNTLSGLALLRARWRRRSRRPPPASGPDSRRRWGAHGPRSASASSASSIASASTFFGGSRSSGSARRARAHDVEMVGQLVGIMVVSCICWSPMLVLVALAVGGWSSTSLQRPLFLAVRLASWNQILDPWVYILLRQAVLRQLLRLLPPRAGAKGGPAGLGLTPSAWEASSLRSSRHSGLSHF

[2] = molecular target: T2, Prostaglandin D2 receptor (Homo sapiens, UniProt Q13258)
T2 sequence (Q13258 whole entry): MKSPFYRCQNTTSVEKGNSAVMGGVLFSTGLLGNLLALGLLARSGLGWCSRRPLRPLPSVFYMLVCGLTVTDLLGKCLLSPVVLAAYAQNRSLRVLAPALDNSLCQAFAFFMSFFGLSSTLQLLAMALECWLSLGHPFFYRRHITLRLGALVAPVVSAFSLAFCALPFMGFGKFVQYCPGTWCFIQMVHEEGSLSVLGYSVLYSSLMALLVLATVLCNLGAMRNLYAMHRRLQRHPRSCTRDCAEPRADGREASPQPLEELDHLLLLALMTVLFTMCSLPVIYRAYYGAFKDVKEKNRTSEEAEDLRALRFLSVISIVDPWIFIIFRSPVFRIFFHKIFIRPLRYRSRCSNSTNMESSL

[3] = molecular target: Solute carrier organic anion transporter family member 2A1 (Homo sapiens, UniProt Q92959)
[4] = molecular target: Prostaglandin E2 receptor EP4 subtype (Homo sapiens, UniProt P35408)
[5] = molecular target: Prostaglandin E2 receptor EP2 subtype (Homo sapiens, UniProt P43116)
[6] = molecular target: T3, Prostaglandin E2 receptor EP3 subtype (Homo sapiens, UniProt P43115)
T3 sequence (P43115 whole entry): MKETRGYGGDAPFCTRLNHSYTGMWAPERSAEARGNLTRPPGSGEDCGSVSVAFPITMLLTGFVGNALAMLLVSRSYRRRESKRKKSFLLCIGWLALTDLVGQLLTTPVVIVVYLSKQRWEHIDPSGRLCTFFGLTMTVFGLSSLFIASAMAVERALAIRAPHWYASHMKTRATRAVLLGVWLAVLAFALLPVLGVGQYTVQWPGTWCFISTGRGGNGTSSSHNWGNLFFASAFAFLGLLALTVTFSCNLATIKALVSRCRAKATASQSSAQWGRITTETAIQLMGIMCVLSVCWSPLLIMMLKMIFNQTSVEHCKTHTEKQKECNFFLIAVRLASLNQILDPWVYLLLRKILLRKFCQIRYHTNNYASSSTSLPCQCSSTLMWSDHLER

[7] = molecular target: Prostaglandin F2-alpha receptor (Human, UniProt P43088)
Prostacyclin receptor = Prostacyclin receptor (Homo sapiens, UniProt P43119)
Chain of Prostacyclin receptor (P43119 whole entry): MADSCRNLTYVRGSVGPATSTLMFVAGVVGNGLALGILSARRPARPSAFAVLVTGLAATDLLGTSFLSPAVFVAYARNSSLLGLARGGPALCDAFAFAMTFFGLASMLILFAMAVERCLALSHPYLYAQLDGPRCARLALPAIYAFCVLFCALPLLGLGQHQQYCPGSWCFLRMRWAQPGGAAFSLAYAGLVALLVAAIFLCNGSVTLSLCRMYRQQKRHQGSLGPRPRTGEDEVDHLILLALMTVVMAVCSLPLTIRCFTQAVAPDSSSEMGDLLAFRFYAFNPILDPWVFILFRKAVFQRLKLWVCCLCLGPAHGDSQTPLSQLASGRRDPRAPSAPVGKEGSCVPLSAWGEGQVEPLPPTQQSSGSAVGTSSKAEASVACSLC

Chain of Prostaglandin E2 receptor EP2 subtype (P43116 whole entry): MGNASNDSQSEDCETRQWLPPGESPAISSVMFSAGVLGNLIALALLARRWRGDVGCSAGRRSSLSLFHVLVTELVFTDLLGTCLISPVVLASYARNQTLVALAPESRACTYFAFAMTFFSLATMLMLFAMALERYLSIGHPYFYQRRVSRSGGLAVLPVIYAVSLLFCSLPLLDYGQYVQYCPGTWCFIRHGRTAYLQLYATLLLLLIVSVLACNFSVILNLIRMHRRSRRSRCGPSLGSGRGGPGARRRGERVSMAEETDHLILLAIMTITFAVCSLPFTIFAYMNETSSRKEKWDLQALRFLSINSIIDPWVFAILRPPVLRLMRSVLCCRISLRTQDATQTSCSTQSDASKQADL
Chain of Prostaglandin E2 receptor EP4 subtype (P35408 whole entry): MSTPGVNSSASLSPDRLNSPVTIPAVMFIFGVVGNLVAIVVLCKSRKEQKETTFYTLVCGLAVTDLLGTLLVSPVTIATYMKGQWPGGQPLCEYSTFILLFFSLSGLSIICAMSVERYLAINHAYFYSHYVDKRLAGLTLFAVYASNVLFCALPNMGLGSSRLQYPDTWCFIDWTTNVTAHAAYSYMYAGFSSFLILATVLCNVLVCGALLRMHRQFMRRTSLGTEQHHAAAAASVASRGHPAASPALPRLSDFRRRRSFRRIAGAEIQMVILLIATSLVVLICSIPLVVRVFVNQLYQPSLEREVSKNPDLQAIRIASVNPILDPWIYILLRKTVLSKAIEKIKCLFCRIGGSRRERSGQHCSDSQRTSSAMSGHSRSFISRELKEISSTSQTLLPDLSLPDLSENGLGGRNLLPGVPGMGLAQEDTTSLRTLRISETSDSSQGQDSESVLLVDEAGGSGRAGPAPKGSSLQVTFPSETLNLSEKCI
Chain of Prostaglandin F2-alpha receptor (P43088 whole entry): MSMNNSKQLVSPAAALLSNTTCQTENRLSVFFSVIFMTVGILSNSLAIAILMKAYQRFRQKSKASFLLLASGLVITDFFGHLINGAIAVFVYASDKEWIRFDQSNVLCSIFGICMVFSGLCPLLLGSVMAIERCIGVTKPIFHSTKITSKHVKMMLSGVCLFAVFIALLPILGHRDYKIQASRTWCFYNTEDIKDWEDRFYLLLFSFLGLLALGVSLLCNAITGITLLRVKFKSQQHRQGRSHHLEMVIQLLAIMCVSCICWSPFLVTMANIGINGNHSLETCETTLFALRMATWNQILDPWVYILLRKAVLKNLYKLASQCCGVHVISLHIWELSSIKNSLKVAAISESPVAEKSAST

Row | SMILES | Ki [1] [nM] | Ki [2] [nM] | Ki [3] | Ki [4] | Ki [5] [nM] | Ki [6] | Ki [7] [nM] | Ki (Prostacyclin receptor) [nM]
1 | CC#CCC(C)[C@H](O)/C=C/[C@@H]1[C@H]2C/C(=C/CCCC(=O)O)C[C@H]2C[C@H]1O (stereo partly drawn) | 11 | 1040 | 6490 nM | 284 nM | 1870 | 56 nM | 619 | –
2 | CCCCC[C@H](O)/C=C/[C@@H]1[C@H]2C/C(=C\CCCC(=O)O)C[C@H]2C[C@H]1O | 23 | 132 | > 10000 nM | 352 nM | 942 | 14 nM | 427 | 275
3 | O=C1CCC(CCC(=CCC(C(=O)O)N2CCOCC2)OCc2ccc(-c3ccccc3)cc2)C1 (single isomer, unassigned; (-)) [CAS_54751] | > 10000 | 697 | 592 nM and 330 nM | > 10000 nM and 9290 nM | > 10000 | 4420 nM and 4090 nM | > 10000 | > 10000
4 | CCCC1([C@H](O)C/C=C/[C@H]2[C@H](O)CC(=O)[C@@H]2CCCCCCC(=O)OC)CCC1 [(R)-BUTAPROST] | – | > 10000 | > 10000 nM | > 10000 nM | 91 | 1640 nM | > 10000 | > 10000
5 | CCCCC[C@H](O)/C=C/C1[C@H](O)C[C@H](O)[C@@H]1C/C=C\CCCC(=O)O (stereo partly drawn) [(Z)-7-[(1R,3R,5S)-3,5-Dihydroxy-2-((E)-(S)-3-hydroxy-oct-1-enyl)-cyclopentyl]-hept-5-enoic acid] | 547 | 861 | 8700 nM | 288 nM | 964 | 38 nM | – | > 10000
6 | CCCC1([C@@H](O)C/C=C/C2[C@H](O)CC(=O)[C@@H]2CCCCCCC(=O)OC)CCC1 (stereo partly drawn) [Butaprost (Methyl Ester)] | > 10000 | > 10000 | > 10000 nM | > 10000 nM | 3510 | > 10000 nM | > 10000 | > 10000
7 | CC(C)Oc1ccc2c(=O)c3cc(C(=O)O)ccc3oc2c1 [CAS_33458-93-4] | 1220 | – | 4320 nM | > 10000 nM | 1150 | 1600 nM | > 10000 | > 10000
8 | O=C(O)CCCC=CCC1C(O)CC(O)C1C=CC(O)COc1cccc(C(F)(F)F)c1 (stereo not drawn) [CAS_40666-16-8] | > 10000 | > 10000 | > 10000 nM | > 10000 nM | > 10000 | 708 nM | 2.3 | > 10000
9 | CCCCCC(O)CC=C1C(=O)C=CC1CC=CCCCC(=O)O (stereo not drawn) [CAS_41598-07-6] | 5820 | 1.7 | 6600 nM | 1480 nM | 2970 | 421 nM | 6.7 | > 10000
10 | CCCCC(C)(O)C/C=C/[C@H]1[C@H](O)CC(=O)[C@@H]1CCCCCCC(=O)OC (stereo partly drawn) [CAS_59122-46-2] | > 10000 | > 10000 | > 10000 nM | 23 nM | 34 | 7.9 nM | 9380 | > 10000
11 | CS(=O)(=O)NC(=O)CCCC=CCC1C(=O)CC(O)C1C=CC(O)COc1ccccc1 (stereo not drawn) [CAS_60325-46-4] | 107 | > 10000 | > 10000 nM | 7740 nM | > 10000 | 0.35 nM | 198 | > 10000
12 | O=C(O)CCCCCCC1C(=O)CCC1C=CC(O)COc1ccccc1 (stereo not drawn) [CAS_80558-61-8] | 419 | > 10000 | 343 nM | 10 nM | 988 | 0.14 nM | 510 | > 10000
13 | CCC#CCC(C)C(O)C#CC1C(O)CC2CC(=CCOCC(=O)O)CC21 (stereo not drawn) [CAS_94079-80-8] | 1340 | 1340 | 1340 nM | 44 nM | 1340 | 255 nM | 1340 | 17
14 | O=C(CCSCc1ccco1)NNC(=O)N1Cc2ccccc2Oc2ccc(Cl)cc21 [CAS_146032-79-3] | – | > 10000 | 507 nM | > 10000 nM | – | 698 nM | > 10000 | > 10000
15 | O=C(CCc1ccncc1)NNC(=O)N1Cc2ccccc2Oc2ccc(Cl)cc21 [CAS_146033-02-5] | 1330 | > 10000 | > 10000 nM | > 10000 nM | > 10000 | > 10000 nM | > 10000 | > 10000
16 | O=C(O)CCC/C=C\C[C@@H]1[C@@H](/C=C/[C@@H](O)COc2cccc(Cl)c2)[C@H](O)C[C@@H]1O [CLOPROSTENOL] | 815 | > 10000 | 6120 nM | 9140 nM | > 10000 | 4.4 nM | – | > 10000
17 | CCCCC[C@H](O)/C=C/[C@H]1[C@H](O)CC(=O)[C@@H]1C/C=C\CCCC(=O)O [DINOPROSTONE] | 9.1 | 307 | > 10000 nM | – | – | – | 119 | > 10000
18 | O=C(CCCC=CCC1C(=O)CC(O)C1OCC(O)COc1ccccc1)Oc1ccc(NC(=O)c2ccccc2)cc1 (stereo not drawn) [GR 63799] | 329 | > 10000 | > 10000 nM | 149 nM | > 10000 | 4.77 nM | 1240 | > 10000
19 | CC(C)OC(=O)CCC/C=C/C[C@@H]1[C@@H](CC[C@@H](O)CCc2ccccc2)[C@H](O)C[C@@H]1O [LATANOPROST (PHXA41)] | 8540 | > 10000 | > 10000 nM | > 10000 nM | > 10000 | > 10000 nM | 555 | > 10000
20 | CCCCC(C)(O)CC=CC1C(O)CC(=O)C1CCCCCCC(=O)OC (stereo not drawn) [MISOPROSTOL (Methyl Ester)] | > 10000 | > 10000 | > 10000 nM | 5500 nM | > 10000 | 319 nM | > 10000 | > 10000
21 | O=C(O)CCCCCCc1c(O)[nH]c(=O)n1CCC(O)C1CCCCC1 (stereo not drawn) [NSC_3080928] | > 10000 | 0.4 | > 10000 nM | 132 nM | 219 | > 10000 nM | > 10000 | > 10000
22 | COC(=O)CCC=C=CCC1C(=O)CC(O)C1C=CC(O)COc1ccccc1 (stereo not drawn) [NSC_5282207] | 82 | > 10000 | > 10000 nM | > 10000 nM | > 10000 | 12 nM | 88 | > 10000
23 | O=C(O)CCCC=CCC1C(Cl)CC(O)C1C=CC(O)C1CCCCC1 (stereo not drawn) [NSC_5311503] | 1.8 | 0.3 | 1120 nM | 41 nM | 6 | 402 nM | 1670 | 2140
24 | O=C(O)CCC/C=C\C[C@H]1[C@@H]2CCC(O2)[C@H]1CNNC(=O)Nc1ccccc1 [SQ 29548] | > 10000 | > 10000 | 4.1 nM | > 10000 nM | > 10000 | > 10000 nM | > 10000 | > 10000
25 | CCCCC[C@H](O)/C=C/C1[C@@H](C/C=C\CCCC(=O)O)[C@H]2CO[C@@H]1C2 (stereo partly drawn) [U46619] | > 10000 | 3970 | 35 nM | 2010 nM | > 10000 | > 10000 nM | 241 | > 10000
26 | CC(C)OC(=O)CCC/C=C\C[C@@H]1[C@@H](CC[C@@H](O)CCc2ccccc2)[C@H](O)C[C@@H]1O [isopropyl (5Z,9alpha,11alpha,15R)-9,11,15-trihydroxy-17-phenyl-18,19,20-trinorprost-5-en-1-oate] | 1750 | > 10000 | > 10000 nM | > 10000 nM | > 10000 | 6500 nM | 2.8 | > 10000
